Assay results as given in patent US11530216B2, “Deuterated colony stimulating factor-1 receptor (CSF-1R) inhibitors” (Genzyme Corporation, priority 2020, dated 2022).

Tests used:
[1] = Caco-2 permeability assay; type: in vitro ADME; details: human; for Papp at 90 min, 20 μM: apical pH 6.5, 90 min
Experimental: Caco-2 permeability and efflux assays were performed in cell-based permeability model using Caco-2/TC7 cells. For permeability assays, Caco-2/TC7 cells were seeded on to Millipore Millicell 96 and for efflux assays, 24-well plates were used. The plates with cells were ready to use between 21-25 days of culturing. Both permeability and efflux assays were performed using the TECAN automated liquid handling platform. For permeability assays, test compounds were prepared at 20 μM test concentrations in permeability assay buffer (10 mM HEPES in HBSS buffer, pH 6.5) containing 0.5% BSA. Basolateral permeability buffer (pH 7.4) contains 5% BSA. For efflux assays, test compounds were prepared at 1 μM test concentrations in permeability assay buffer (10 mM HEPES in HBSS buffer, pH 7.4) containing 0.5% BSA. For efflux assays, the basolateral permeability buffer (pH 7.4) contained 0.5% BSA. The permeability assay was initiated by adding 20 μM test solution to apical side of plate containing Caco-2/TC7 cells. In the efflux assay, 1 μM test compound was added to an apical compartment for apical to basolateral (A to B) permeability determination. For basolateral to apical (B to A) permeability determination, the test compound was added to the basolateral side. The plate was incubated for 90 min under constant shaking at 37° C. At the end of the incubation period, samples taken were analyzed using high pressure liquid chromatography with tandem mass spectrometry. For each assay, apparent permeability (Papp) and recovery was calculated from mass spectrometry data. For permeability assay, Papp values are reported as numbers×10^−07 cm/s. For efflux assays, the efflux ratio is calculated using Papp (basolateral to apical) to Papp (apical to basolateral), in addition to recovery values.

[2] = Human hepatocyte intrinsic clearance; type: in vitro ADME; details: human, hepatocytes
Experimental: Incubations were performed in 0.5 million hepatocytes cells/mL at 1 μM concentration of test compound in duplicate with rat, human, dog, monkey, or mouse hepatocytes, and the concentration-time course of test compound depletion was determined after withdrawing samples from the incubation at assay time points followed by liquid chromatography with tandem mass spectrometry analysis. An organic solvent was used to terminate incubations.
These available known AO substrates along with the test compounds were analyzed using three in vitro systems (pooled human liver cytosol, liver S-9 fractions and human hepatocytes isolated from livers perfused with HTK media). Scaled unbound intrinsic clearances were calculated for the test compounds/new chemical entities and were compared to the in vivo unbound intrinsic clearances of the known AO substrates.

C57BL/6 EAE model = assay: MOG-induced EAE model; type: in vivo, mouse; details: 15 mg/kg p.o. BID for 7 days; for mean disease scores: female C57BL/6J mice
Experimental: Experimental autoimmune encephalomyelitis (EAE) is primarily used as a non-clinical model of autoimmune inflammatory diseases of the CNS, and resembles many aspects of human multiple sclerosis. The myelin oligodendrocyte glycoprotein (MOG)-induced EAE model is ideal for exploring this immune-mediated mechanism of neuroinflammation and demyelination.
Test articles: • MOG35-55 peptide (New England Peptides, lot #BU01787)—250 μg/mouse in 4 mg/mL complete Freund's adjuvant (CFA; Chondrex Inc, Cat #7009, lot #190446) Bordetella pertussis toxin (PTX, Sigma, cat #P7208-5OUG, lot #MKCL 1350)—280 ng/mouse in 200 μL PBS • CSF-1R inhibitors—15 mg/kg • Vehicle—0.5% methylcellulose/0.2% Tween-80 Delivery: • MOG peptide & CFA: subcutaneous injection to 2 sites in the hind flank (100 μL/site). • Bordetella pertussis toxin: i.v. injection of 280 ng/mouse in 200 μL PBS on Day 0 and 2. • CSF1R inhibitor: oral gavage every 12 hours • Vehicle: oral gavage every 12 hours Time points: • Day 0—Administer MOG peptide in CFA and PTX to Groups 1-3 • Day 2—Administer PTX by i.v. to Groups 1-3 • Day 9—Begin daily scoring of mice • Day 11-14—Randomize mice to groups when reach score of 1 and begin treatment • Day ˜18-21—After 7 days of treatment, perfuse mice and euthanize animals.
Mice were clinically assessed daily for signs of paralytic disease and weighed intermittently to document weight loss. At study termination, ½ brain was fixed for histology and brain/liver/plasma were collected for exposure. Spinal cord and whole blood was collected for flow cytometry. Additional plasma aliquots were saved for follow up analysis.
Female C57BL/6J mice were immunized with an emulsion of MOG35-55 peptide (250 μg/mouse) in complete Freund's adjuvant (CFA). […] Following EAE induction, the mice were monitored daily for paralytic symptoms and scored for their clinical presentation using a progressive scoring system (Score 0: no disease; Score 1: flaccid tail; Score 2: hindlimb weakness; Score 3: hindlimb paralysis; Score 4: Front limb weakness or partial paralysis; Score 5: death). […]

CYP2D6 = CYP2D6 (Homo sapiens (Human), UniProt P10635); assay: CYP inhibition in human liver microsomes, CYP2D6; type: in vitro ADME; details: dextromethorphan 10 μM, 30 min, read-out: CYP inhibition mean IC50 (INH) isoform: CYP2D6 Substrate: dextromethorphan
Experimental: The objective of this assay method was to determine the inhibitory potential of test articles, in vitro, against specific cytochrome P450 (CYP) enzymes, using human liver microsomes (HLMs). The test compounds were diluted from pure DMSO stocks to a final test concentration range of 10 μM-0.07 μM in a 0.5% DMSO solution. […] After incubation, the samples were extracted, and protein precipitated in acetonitrile containing 0.1% formic acid. The samples were centrifuged to remove excess protein, and were analyzed by LDTD/MS/MS to determine IC50 values. Key concentrations of substrates were as follows: CYP2D6 Substrate—Dextromethorphan at 10 μM. CYP3A4 Substrates—Testosterone at 60 μM, and Midazolam at 2 μM. Dextromethorphan and testosterone were incubated with the test compounds for 30 minutes each. Midazolam was incubated with the test compounds for 10 minutes.

Sequence of CYP2D6 (P10635 whole entry, canonical isoform): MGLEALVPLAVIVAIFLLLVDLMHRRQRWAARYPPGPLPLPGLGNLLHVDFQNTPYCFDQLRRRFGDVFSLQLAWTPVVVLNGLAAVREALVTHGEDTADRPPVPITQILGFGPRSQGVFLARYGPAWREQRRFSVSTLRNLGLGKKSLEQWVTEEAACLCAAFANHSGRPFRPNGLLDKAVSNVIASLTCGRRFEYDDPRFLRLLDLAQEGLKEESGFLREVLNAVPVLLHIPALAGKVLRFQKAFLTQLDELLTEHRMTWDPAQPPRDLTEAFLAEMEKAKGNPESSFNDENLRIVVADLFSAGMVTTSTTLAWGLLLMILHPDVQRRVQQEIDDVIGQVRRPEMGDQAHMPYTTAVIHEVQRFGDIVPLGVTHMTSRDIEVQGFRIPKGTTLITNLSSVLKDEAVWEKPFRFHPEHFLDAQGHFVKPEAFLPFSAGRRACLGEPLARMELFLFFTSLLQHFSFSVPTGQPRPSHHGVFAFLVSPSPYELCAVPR

| Compound | recovery at 90 min, 20 μM [1] | Papp at 90 min, 20 μM [1] | CLint scaled at 1 μM [2] | hepatocyte CLint at 1 μM [2] | paralytic symptoms (C57BL/6 EAE model; compared with Compound 24) | mean disease scores (C57BL/6 EAE model) | IC50 (CYP2D6) |
| --- | --- | --- | --- | --- | --- | --- | --- |
| [2H]c1nc2cccnc2n1Cc1cc(OC)c2c(c1)O[C@@H](C)[C@H](c1ccc(OC)nc1)O2 [Compound 6, 3-(((2S,3S)-8-methoxy-2-(6-methoxypyridin-3-yl)-3-methyl-2,3-dihydrobenzo[b][1,4]dioxin-6-yl)methyl)-3H-imidazo[4,5-b]pyridine-2-d] | 73% | 37.7 ×10⁻⁶ cm/s | 20 mL/min/kg | 7.88 µL/min/1e6 cells | ameliorated paralytic symptoms to a surprisingly greater extent than nondeuterated Compound 24 | significantly mean disease scores | > 10 µM |
| COc1ccc(C2Oc3c(OC)cc(Cn4cnc5cccnc54)cc3O[C@H]2C)cn1 (stereo partly shown) [Compound 24] | 80% | 37.7 ×10⁻⁶ cm/s | 32.3 mL/min/kg | 12.7 µL/min/1e6 cells | – | significantly mean disease scores | > 10 µM |
